Test results reported in patent US20210101874A1, “MICROBIOCIDAL OXADIAZOLE DERIVATIVES” (SYNGENTA PARTICIPATIONS AG, priority 2017, published 2021).

Columns and labels:
[1] = system: Puccinia recondita f. sp. Tritici; assay: Puccinia recondita f. sp. tritici / wheat / leaf disc preventative (brown rust); assay type: in vivo; conditions: foliar, 200 ppm in the applied formulation, wheat leaf segments cv. Kanzler, inoculated 1 day after application, compared to untreated, assessed 7 to 9 days after application, read-out: disease control
Procedure, shortened: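 Wheat cv. Kanzler leaf segments on agar sprayed with diluted compound, inoculated with brown rust spores 1 day later. Kept at 19° C., 75% rh, 12 h light/dark; percent disease control versus untreated segments scored 7 to 9 days after application, compounds tested at 200 ppm.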

[2] = system: Puccinia recondita f. sp. Tritici; assay: Puccinia recondita f. sp. tritici / wheat / leaf disc curative (brown rust); assay type: in vivo; conditions: foliar, 200 ppm in the applied formulation, wheat leaf segments cv. Kanzler, applied 1 day after inoculation, compared to untreated, assessed 6 to 8 days after application, read-out: disease control
Experimental: Leaf disks or leaf segments of various plant species are cut from plants grown in a greenhouse. The cut leaf disks or segments are placed in multiwell plates (24-well format) onto water agar. The leaf disks are sprayed with a test solution before (preventative) or after (curative) inoculation. Compounds to be tested are prepared as DMSO solutions (max. 10 mg/ml) which are diluted to the appropriate concentration with 0.025% Tween20 just before spraying. The inoculated leaf disks or segments are incubated under defined conditions (temperature, relative humidity, light, etc.) according to the respective test system. A single evaluation of disease level is carried out 3 to 14 days after inoculation, depending on the pathosystem. Percent disease control relative to the untreated check leaf disks or segments is then calculated.
Wheat leaf segments cv. Kanzler are placed on agar in multiwell plates (24-well format). The leaf segments are then inoculated with a spore suspension of the fungus. Plates were stored in darkness at 19° C. and 75% relative humidity. The formulated test compound diluted in water was applied 1 day after inoculation. The leaf segments were incubated at 19° C. and 75% relative humidity under a light regime of 12 hours light/12 hours darkness in a climate cabinet and the activity of a compound was assessed as percent disease control compared to untreated when an appropriate level of disease damage appears in untreated check leaf segments (6 to 8 days after application).
The following compounds at 200 ppm in the applied formulation give at least 80% disease control in this test when compared to untreated control leaf disks under the same conditions, which show extensive disease development.

[3] = system: Glomerella lagenarium (Colletotrichum lagenarium); assay: Glomerella lagenarium (Colletotrichum lagenarium) liquid culture / cucumber / preventative (anthracnose); assay type: cell-based; conditions: Colletotrichum orbiculare; 20 ppm in the applied formulation; conidia in PDB nutrient broth, 24° C.; 3 to 4 days after application; compared to untreated; read-out: disease control (inhibition of growth measured photometrically)
Procedure, shortened: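 Cryostored conidia in potato dextrose broth added to compound diluted from DMSO solution, 96-well format. Plates incubated at 24 °C. Growth inhibition read photometrically 3 to 4 days after application, as percent activity versus untreated check.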

COCCS(=O)(=O)N(Cc1ccc(-c2noc(C(F)(F)F)n2)cc1)C(C)C [Compound 1.83, N-isopropyl-2-methoxy-N-[[4-[5-(trifluoromethyl)-1,2,4-oxadiazol-3-yl]phenyl]methyl] ethanesulfonamide]
≥ 80%: pest or weed control at 200 ppm [1] | pest or weed control at 200 ppm [2] | inhibition at 20 ppm [3]

C/C=C/S(=O)(=O)N(Cc1ccc(-c2noc(C(F)(F)F)n2)cc1)C(C)C [Compound 1.84, (E)-N-isopropyl-N-[[4-[5-(trifluoromethyl)-1,2,4-oxadiazol-3-yl]phenyl]methyl] prop-1-ene-1-sulfonamide]
≥ 80%: pest or weed control at 200 ppm [1] | pest or weed control at 200 ppm [2] | inhibition at 20 ppm [3]

COC(=O)CS(=O)(=O)N(Cc1ccc(-c2noc(C(F)(F)F)n2)cc1)C(C)C [Compound 1.85, methyl 2-[isopropyl-[[4-[5-(trifluoromethyl)-1,2,4-oxadiazol-3-yl]phenyl]methyl]sulfamoyl]acetate]
≥ 80%: pest or weed control at 200 ppm [1] | pest or weed control at 200 ppm [2] | inhibition at 20 ppm [3]

CC(C)N(Cc1ccc(-c2noc(C(F)(F)F)n2)cc1)S(C)(=O)=O [Compound 1.86, N-isopropyl-N-[[4-[5-(trifluoromethyl)-1,2,4-oxadiazol-3-yl]phenyl]methyl] methanesulfonamide]
≥ 80%: pest or weed control at 200 ppm [1] | pest or weed control at 200 ppm [2] | inhibition at 20 ppm [3]

CNS(=O)(=O)N(Cc1ccc(-c2noc(C(F)(F)F)n2)cc1)C(C)C [Compound 1.87, 3-[4-[[isopropyl (methylsulfamoyl)amino]methyl]phenyl]-5-(trifluoromethyl)-1,2,4-oxadiazole]
≥ 80%: pest or weed control at 200 ppm [1] | pest or weed control at 200 ppm [2] | inhibition at 20 ppm [3]

CC(C)N(Cc1ccc(-c2noc(C(F)(F)F)n2)cc1)S(=O)(=O)C1CC1 [Compound 1.98, N-isopropyl-N-[[4-[5-(trifluoromethyl)-1,2,4-oxadiazol-3-yl]phenyl]methyl] cyclopropanesulfonamide]
≥ 80%: pest or weed control at 200 ppm [1] | pest or weed control at 200 ppm [2] | inhibition at 20 ppm [3]

CC(C)N(Cc1ccc(-c2noc(C(F)(F)F)n2)cc1)S(=O)(=O)N(C)C [Compound 1.100, N-(dimethylsulfamoyl)-N-[[4-[5-(trifluoromethyl)-1,2,4-oxadiazol-3-yl]phenyl]methyl] propan-2-amine]
≥ 80%: pest or weed control at 200 ppm [1] | pest or weed control at 200 ppm [2] | inhibition at 20 ppm [3]

CCN(Cc1ccc(-c2noc(C(F)(F)F)n2)cc1F)S(=O)(=O)N(C)C [Compound 1.105, N-(dimethylsulfamoyl)-N-[[2-fluoro-4-[5-(trifluoromethyl)-1,2,4-oxadiazol-3-yl]phenyl]methyl] ethanamine]
≥ 80%: pest or weed control at 200 ppm [1] | pest or weed control at 200 ppm [2] | inhibition at 20 ppm [3]

CCN(Cc1ccc(-c2noc(C(F)(F)F)n2)c(F)c1)S(=O)(=O)N(C)C [Compound 1.106, N-(dimethylsulfamoyl)-N-[[3-fluoro-4-[5-(trifluoromethyl)-1,2,4-oxadiazol-3-yl]phenyl]methyl] ethanamine]
≥ 80%: pest or weed control at 200 ppm [1] | pest or weed control at 200 ppm [2] | inhibition at 20 ppm [3]

CCN(Cc1ccc(-c2noc(C(F)(F)F)n2)c(F)c1F)S(=O)(=O)N(C)C [Compound 1.107, N-[[2,3-difluoro-4-[5-(trifluoromethyl)-1,2,4-oxadiazol-3-yl]phenyl]methyl]-N-(dimethylsulfamoyl) ethanamine]
≥ 80%: pest or weed control at 200 ppm [1] | pest or weed control at 200 ppm [2] | inhibition at 20 ppm [3]

CCCS(=O)(=O)NCc1ccc(-c2noc(C(F)(F)F)n2)cc1 [Compound 2.4, N-[[4-[5-(trifluoromethyl)-1,2,4-oxadiazol-3-yl]phenyl]methyl] propane-1-sulfonamide]
≥ 80%: pest or weed control at 200 ppm [1] | pest or weed control at 200 ppm [2] | inhibition at 20 ppm [3]

CCCS(=O)(=O)NCc1ccc(-c2noc(C(F)(F)F)n2)c(F)c1 [Compound 2.5, N-[[3-fluoro-4-[5-(trifluoromethyl)-1,2,4-oxadiazol-3-yl]phenyl]methyl] propane-1-sulfonamide]
≥ 80%: pest or weed control at 200 ppm [1] | pest or weed control at 200 ppm [2] | inhibition at 20 ppm [3]

CCCS(=O)(=O)NCc1ccc(-c2noc(C(F)(F)F)n2)cc1F [Compound 2.6, N-[[2-fluoro-4-[5-(trifluoromethyl)-1,2,4-oxadiazol-3-yl]phenyl]methyl] propane-1-sulfonamide]
≥ 80%: pest or weed control at 200 ppm [1] | pest or weed control at 200 ppm [2] | inhibition at 20 ppm [3]

C=CCS(=O)(=O)NCc1ccc(-c2noc(C(F)(F)F)n2)cc1 [Compound 2.7, N-[[4-[5-(trifluoromethyl)-1,2,4-oxadiazol-3-yl]phenyl]methyl] prop-2-ene-1-sulfonamide]
≥ 80%: pest or weed control at 200 ppm [1] | pest or weed control at 200 ppm [2] | inhibition at 20 ppm [3]

COC(=O)CCS(=O)(=O)NCc1ccc(-c2noc(C(F)(F)F)n2)cc1 [Compound 2.8, methyl 3-[[4-[5-(trifluoromethyl)-1,2,4-oxadiazol-3-yl]phenyl]methyl-sulfamoyl] propanoate]
≥ 80%: pest or weed control at 200 ppm [1] | pest or weed control at 200 ppm [2] | inhibition at 20 ppm [3]

CS(=O)(=O)NCc1ccc(-c2noc(C(F)(F)F)n2)cc1 [Compound 2.13, N-[[4-[5-(trifluoromethyl)-1,2,4-oxadiazol-3-yl]phenyl]methyl] methanesulfon-amide]
≥ 80%: pest or weed control at 200 ppm [1] | pest or weed control at 200 ppm [2] | inhibition at 20 ppm [3]

CNS(=O)(=O)NCc1ccc(-c2noc(C(F)(F)F)n2)cc1 [Compound 2.14, N-(methylsulfamoyl)-1-[4-[5-(trifluoromethyl)-1,2,4-oxadiazol-3-yl]phenyl] methanamine]
≥ 80%: pest or weed control at 200 ppm [1] | pest or weed control at 200 ppm [2] | inhibition at 20 ppm [3]

C=CCS(=O)(=O)NCc1ccc(-c2noc(C(F)(F)F)n2)c(F)c1 [Compound 2.15, N-[[3-fluoro-4-[5-(trifluoromethyl)-1,2,4-oxadiazol-3-yl]phenyl]methyl] prop-2-ene-1-sulfonamide]
≥ 80%: pest or weed control at 200 ppm [1] | pest or weed control at 200 ppm [2] | inhibition at 20 ppm [3]

COC(=O)CCS(=O)(=O)NCc1ccc(-c2noc(C(F)(F)F)n2)c(F)c1 [Compound 2.16, methyl 3-[[3-fluoro-4-[5-(trifluoromethyl)-1,2,4-oxadiazol-3-yl]phenyl]methyl-sulfamoyl] propanoate]
≥ 80%: pest or weed control at 200 ppm [1] | pest or weed control at 200 ppm [2] | inhibition at 20 ppm [3]

COCCS(=O)(=O)NCc1ccc(-c2noc(C(F)(F)F)n2)c(F)c1 [Compound 2.17, N-[[3-fluoro-4-[5-(trifluoromethyl)-1,2,4-oxadiazol-3-yl]phenyl]methyl]-2-methoxy-ethanesulfon-amide]
≥ 80%: pest or weed control at 200 ppm [1] | pest or weed control at 200 ppm [2] | inhibition at 20 ppm [3]

C/C=C/S(=O)(=O)NCc1ccc(-c2noc(C(F)(F)F)n2)c(F)c1 [Compound 2.19, (E)-N-[[3-fluoro-4-[5-(trifluoromethyl)-1,2,4-oxadiazol-3-yl]phenyl]methyl] prop-1-ene-1-sulfonamide]
≥ 80%: pest or weed control at 200 ppm [1] | pest or weed control at 200 ppm [2] | inhibition at 20 ppm [3]

CCS(=O)(=O)NCc1ccc(-c2noc(C(F)(F)F)n2)c(F)c1 [Compound 2.24, N-[[3-fluoro-4-[5-(trifluoromethyl)-1,2,4-oxadiazol-3-yl]phenyl]methyl] ethanesulfon-amide]
≥ 80%: pest or weed control at 200 ppm [1] | pest or weed control at 200 ppm [2] | inhibition at 20 ppm [3]
